Columns and labels:
[1] = test system: FSP1-WT or FSP1-KO HT1080 cells; experiment: FIN-induced ferroptosis in FSP1-WT or FSP1-KO cells; assay type: cell-based, human; conditions: iFSP1 10 μM, CPBA 100 μM; for extent of sensitization to ferroptosis in FSP1-WT cells: FIN56, BSO or RSL3, 16 h; for additional effect in FSP1-deficient cells: FSP1-KO HT1080
Experimental: (§1) The following HT1080 fibrosarcoma cell lines were generated using CRISPR/Cas9 technology, as previously described (Doll et al., 2019): HT1080 GPX4-knockout (KO) cells (maintained in the presence of 100 μM α-tocopherol); HT1080 GPX4 knockout cells overexpressing FSP1 (GPX4-KO/FSP1-OE); GPX4-KO cells overexpressing FSP1 and re-expressing GPX4 (GPX4-KO/FSP1-OE/GPX4-OE); HT1080 FSP1-WT or FSP1-KO cells; and HT1080 FSP1-KO cells reconstituted with either FSP1-WT or FSP1-G2A. LOX-IMVI (BRAF V600E heterozygous human melanoma cells) expressing either the Venus mock vector or FSP1-Venus (Doll et al., 2019) were grown in RPMI-1640 supplemented with 10% FCS, 2 mM L-glutamine and Pen/Strep.
Cells were seeded onto 96-well plates (5,000 cells per well), and treated with serial dilutions of ferroptosis-inducing compounds (erastin, BSO, RSL3, FIN56) or cytotoxic drugs (staurosporine, nocodazole, tunicamycin, paclitaxel, etoposide, menadione, rotenone, FCCP, carboplatin) in the absence or presence of CPBA or iFSP1 (100 μM or 10 μM, respectively; unless stated otherwise) or the DMSO solvent control. Ferroptotic cell death was evaluated by incubating in the absence or presence of liproxstatin-1 (100 nM), ferrostatin-1 (200 nM), or deferoxamine (100 μM). Cell viability was assessed after 16 h using AquaBluer as an indicator of viable cells according to the manufacturer's recommendations (MultiTarget Pharmaceuticals, LLC). Fluorescence (excitation, 540 nm; emission, 590 nm) was analyzed on a Clariostar microplater reader.
We next performed comparative experiments to compare the effect of CPBA with the effect of the small molecule FSP1 inihibitor iFSP1. To this end, we incubated FSP1-WT or FSP1-KO HT1080 cells with FIN56 (see FIG. 15), BSO (see FIG. 16) or RSL3 (see FIG. 17) to induce ferroptosis as described above. Lack of FSP1 expression in FSP1-KO cell lines was confirmed by Western Blot as described above (see FIG. 14).
Next, we compared the treatment of FSP1-WT and FSP1-KO cells with either iFSP1 or with CPBA (see FIGS. 15, 16 and 17).

human FSP1 = target: T1, human FSP1 (Homo sapiens, UniProt Q9BRQ8); experiment: In vitro FSP1 oxidoreductase (NADH consumption) assay, human FSP1; assay type: biochemical; conditions: resazurine or coQ1 as electron acceptor
T1 construct: His6 (N, cleaved yes); made in house; host or cells: Escherichia coli BL21 pG-Tf2
T1 sequence (Q9BRQ8 1-373): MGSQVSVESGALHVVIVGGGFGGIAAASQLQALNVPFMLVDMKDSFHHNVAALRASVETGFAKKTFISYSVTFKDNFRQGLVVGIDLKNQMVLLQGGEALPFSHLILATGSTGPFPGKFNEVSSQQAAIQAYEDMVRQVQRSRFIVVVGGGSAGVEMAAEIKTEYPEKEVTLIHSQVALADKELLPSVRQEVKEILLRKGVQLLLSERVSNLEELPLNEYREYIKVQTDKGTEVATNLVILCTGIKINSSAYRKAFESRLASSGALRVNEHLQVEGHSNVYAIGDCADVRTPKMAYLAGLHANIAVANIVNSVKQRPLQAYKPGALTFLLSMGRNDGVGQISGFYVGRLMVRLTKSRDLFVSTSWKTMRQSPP
Experimental: FSP1 activity assays were performed using recombinant, purified murine or human FSP1, NADH, and resazurine or coenzyme-Q1 (coQ1) as electron acceptor molecules. The following conditions were used: 200 μM resazurine were reduced with 750 nM mFSP1 or 150 nM hFSP1; 100 μM coQ1 was reduced with 400 nM mFSP1; and 137 μM coQ1 were reduced with 200 nM hFSP1. The consumption of NADH (500 μM) was measured at 340 nm in phosphate-buffered saline (80 mM Na3PO4, 300 mM NaCl; pH 7.0) at room temperature on a CLARIOstar microplate reader (BMG Labtech). Initial rates were determined, and data were fitted by linear regression using GraphPad Prism software, version 9.1.2.
In order to determine inhibition of FSP1 by CPBA, FSP1 activity was measured […] either CPBA or iFSP1 as a positive control. In vitro FSP1 oxidoreductase activity assays were performed using recombinant, purified murine or human FSP1, NADH, and resazurine or coenzyme-Q1 (coQ1) as electron acceptor molecules as described above (see FIG. 19).
In vitro FSP1 activity assays with human (see FIG. 22 C) or murine (see FIG. 22 D) FSP1 were performed as described above. Shown are NADH consumption assays using recombinant, purified human or mouse FSP1 (hFSP1, mFSP1) and resazurine or coenzyme-Q1 (CoQ1) as electron acceptor molecules.

[2] = test system: LOX-IMVI human melanoma cells; experiment: FIN56-induced ferroptosis in LOX-IMVI cells with mock vector or FSP1-Venus; assay type: cell-based
Experimental: as §1
LOX-IMVI cells are FSP1-deficient, and were reconstituted with either mock vector (expressing Venus), or with FSP1-Venus to restore FSP1 expression, and treated with either CPBA or iFSP1 as described above (see FIG. 18B).

[3] = test system: GPX4-KO/FSP1-OE HT1080 cells; experiment: Viability of FSP1-dependent GPX4-KO cells with serial dilutions of CPBA, no FINs; assay type: cell-based, human; conditions: serial dilutions of CPBA, no FINs
Experimental: as §1
Next, we tested the effect of CPBA on ferroptotic cell death in GPX4-deficient HT1080 cells whose survival depends on the expression of FSP1 in order to suppress ferroptosis in the absence of GPX4. GPX4 knockout cells overexpressing FSP1 (GPX4-KO/FSP1-OE), or GPX4-KO cells overexpressing FSP1 and re-expressing GPX4 (GPX4-KO/FSP1-OE/GPX4-OE) were incubated with serial dilutions of CPBA. Note that no ferroptosis inducers (FINs) were added. Protein expression was confirmed by Western Blot as described above (see FIG. 11).

Compound | extent of sensitization to ferroptosis in FSP1-WT cells [1] | additional effect in FSP1-deficient cells [1] | inhibition of human FSP1 activity (human FSP1) | effectiveness in LOX-IMVI cells ([2]; as described previously (Doll et al., Nature 2019)) | cell death of GPX4-KO, FSP1-dependent cells [3] | effect in cells reconstituted with FSP1-Venus ([2]; CPBA- and FIN56-treated cells) | enhancement of the ferroptosis-inducing effect of FIN56 ([2]; FSP1-deficient cells (mock vector))
Cc1ccc(-c2c(C#N)c(N)n3c(nc4ccccc43)c2C#N)cc1 [iFSP1, reference compound] | slightly smaller than the effect of CBPA in all conditions | no additional effect of iFSP1 or CPBA is observed in FSP1-deficient cells | is an inhibitor of human FSP1 | ineffective in LOX-IMVI cells |  |  | 
O=C(Nc1ccccc1C(=O)O)c1ccc(Oc2ccc(C(=O)Nc3ccccc3C(=O)O)cc2)cc1 [CPBA, 2-[[4-[4-[(2-carboxyphenyl)carbamoyl]phenoxy]benzoyl]amino]-benzoic acid] | comparable to the effect of FSP1-deficiency | no additional effect of iFSP1 or CPBA is observed in FSP1-deficient cells | inhibits human and murine FSP1 activity |  | die in a CPBA concentration-dependent manner | FSP1-expression rescues CPBA- and FIN56-treated cells from ferroptosis | does not enhance the ferroptosis-inducing effect of FIN56 in FSP1-deficient cells
